One may read the Ki as a measure of affinity in units of concentration, obtained from inhibition or displacement.

This experiment concerns the target T1, Aminopeptidase N (Sus scrofa, UniProt P15145).
T1 sequence (P15145 whole entry): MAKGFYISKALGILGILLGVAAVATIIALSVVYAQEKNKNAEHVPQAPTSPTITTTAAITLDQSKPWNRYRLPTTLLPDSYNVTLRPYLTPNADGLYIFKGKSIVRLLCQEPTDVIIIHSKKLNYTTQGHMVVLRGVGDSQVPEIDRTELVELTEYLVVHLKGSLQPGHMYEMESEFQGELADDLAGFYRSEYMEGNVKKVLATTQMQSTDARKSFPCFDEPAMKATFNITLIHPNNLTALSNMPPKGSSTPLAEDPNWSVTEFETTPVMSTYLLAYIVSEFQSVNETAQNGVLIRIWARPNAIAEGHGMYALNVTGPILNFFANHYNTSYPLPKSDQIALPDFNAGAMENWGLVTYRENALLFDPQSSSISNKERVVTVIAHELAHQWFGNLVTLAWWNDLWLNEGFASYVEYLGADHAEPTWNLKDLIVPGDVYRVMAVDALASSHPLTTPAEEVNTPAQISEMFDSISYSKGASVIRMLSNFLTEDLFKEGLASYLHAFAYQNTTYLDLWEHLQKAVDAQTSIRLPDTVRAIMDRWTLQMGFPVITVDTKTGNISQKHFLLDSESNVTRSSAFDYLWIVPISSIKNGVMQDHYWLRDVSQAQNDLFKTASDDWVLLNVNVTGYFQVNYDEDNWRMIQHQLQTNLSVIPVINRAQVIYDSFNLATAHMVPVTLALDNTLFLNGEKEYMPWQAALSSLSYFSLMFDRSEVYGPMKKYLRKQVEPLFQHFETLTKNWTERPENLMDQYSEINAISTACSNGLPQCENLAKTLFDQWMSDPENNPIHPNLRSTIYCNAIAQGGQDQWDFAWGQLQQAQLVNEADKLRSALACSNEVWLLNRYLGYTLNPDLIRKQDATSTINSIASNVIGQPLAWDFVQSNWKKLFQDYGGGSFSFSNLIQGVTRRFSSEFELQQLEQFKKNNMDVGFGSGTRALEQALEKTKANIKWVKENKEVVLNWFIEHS
As to the kind of experiment: Inhibition of pig kidney Aminopeptidase N.
Consider `N[C@H](CS)c1ccccc1`, for which affinity was put at a Ki of 25 nM.

Turning to `NC(Cc1ccccc1)P(=O)(O)CC(Cc1ccccc1)C(=O)O` (stereo unspecified), the Ki was determined as 190 nM.

`N[C@H](CS)CCc1ccccc1`: the affinity, expressed as Ki, was 27 nM.

In the case of `CC(C)CC(N)P(=O)(O)CC(Cc1ccccc1)C(=O)O` (stereo unspecified), the inhibition constant Ki came to 370 nM.

With `C[C@H](N)CS`, the Ki was determined as 28 nM.

In turn, `CC(N)[PH](=O)O` (stereo unspecified) had a Ki of 8400 nM.

Compound `NC(Cc1ccccc1)[PH](=O)O` (stereo unspecified) had a Ki of 960 nM.

The compound `CSCCC(N)[PH](=O)O` (stereo unspecified) showed a Ki of 400 nM.

`CC(C)CC(N)[PH](=O)O` (stereo unspecified) came in with a Ki of 1200 nM.

Regarding `NC(c1ccccc1)[PH](=O)O` (stereo unspecified), the inhibition constant (Ki) was determined as 4800 nM.

Turning to `CC(C)C[C@H](N)CS`, the affinity, expressed as Ki, was 22 nM.

Source of the values: ChEMBL document CHEMBL1131728 (Bioorg Med Chem Lett, 1999).
